The source of these data is US10039753B2, “Imidazo[4,5-c]quinoline and imidazo[4,5-c][1,5]naphthyridine derivatives as LRRK2 inhibitors” (Pfizer Inc., priority 2015, dated 2018).

Each structure is given as a SMILES string. Counter-ions that a name gives are not always drawn. Like-named read-outs stand apart in the source and are kept apart here.

Assay [1] addresses T1, GST-tagged truncated LRRK2 (Homo sapiens, UniProt Q5S007).
T1 construct: GST-tagged truncated LRRK2 from Invitrogen (Cat # PV4874); GST; purchased Invitrogen PV4874
As to the kind of experiment: LRRK2 Assay, Format 2 (Lantha Screen), WT. The format is biochemical. How it is done: (§1) LRRK2 kinase activity was measured using Lantha Screen technology from Invitrogen. GST-tagged truncated LRRK2 from Invitrogen (Cat # PV4874) was incubated with a fluorescein-labeled peptide substrate based upon ezrin/radixin/moesin (ERM), also known as LRRKtide (Invitrogen cat # PR8976A), in the presence of a dose response of compound. Upon completion, the assay was stopped and detected with a terbium labeled anti-phospho-ERM antibody (Invitrogen, cat # PR8975A). […] Using Echo acoustic dispensing, 60 nL of compound was transferred to a low volume Corning 384-well assay plate. 3 μL of a working solution of substrate (200 nM LRRKtide, […]) prepared in assay buffer (50 mM HEPES, pH 7.5, 3 mM MgCl2, with 2 mM DTT and 0.01% Brij35 added fresh) was added to the 60 nL compound assay plate. The kinase reaction was started with […] of a working solution of LRRK2 enzyme at a concentration of […]. The final reaction concentrations were 100 nM LRRKtide, […], […] LRRK2 enzyme and a compound dose response with a top dose of 3 mM. The reaction was allowed to progress at room temperature for 30 minutes and then stopped with the addition of […] of detection buffer (20 mM Tris pH 7.6, 0.01% NP-40, 6 mM EDTA with 2 nM terbium labeled anti-phospho-ERM). After an incubation of 1 hour at room temperature, the plate was read on an Envision with an excitation wavelength of 340 nm and a reading emission at both 520 nm and 495 nm. The ratio of the 520 nm and 495 nm emission was used to analyze the data. Inhibition of mutant G2019S LRRK2 (Invitrogen cat # PV4881) was measured in the exact same method. All final concentrations of substrate ATP and enzyme were the same.

Assay [2] addresses mutant G2019S LRRK2 (Homo sapiens, UniProt Q5S007, G2019S). As to the kind of experiment: LRRK2 Assay, Format 2 (Lantha Screen), G2019S mutant. Format: biochemical. On the set-up: purchased Invitrogen PV4881. How it is done:
as §1

Setting [3] is: geometric mean of 2-4 determinations unless otherwise indicated (a: >=5; b: single determination).
Setting [4] is: geometric mean of 2-4 determinations unless otherwise indicated (a: >=5; b: single determination), read-out: LRRK2, Format 2 G2019S IC50.
Setting [5] is: 100 nM LRRKtide, 1000 mM ATP (so in the source), 30 minutes at room temperature.
Where [6] appears, read: 100 nM LRRKtide, 1000 mM ATP (so in the source), 30 minutes at room temperature, read-out: LRRK2, Format 2 G2019S mutant IC50.

T1 sequence (Q5S007 970-2527 limits assumed): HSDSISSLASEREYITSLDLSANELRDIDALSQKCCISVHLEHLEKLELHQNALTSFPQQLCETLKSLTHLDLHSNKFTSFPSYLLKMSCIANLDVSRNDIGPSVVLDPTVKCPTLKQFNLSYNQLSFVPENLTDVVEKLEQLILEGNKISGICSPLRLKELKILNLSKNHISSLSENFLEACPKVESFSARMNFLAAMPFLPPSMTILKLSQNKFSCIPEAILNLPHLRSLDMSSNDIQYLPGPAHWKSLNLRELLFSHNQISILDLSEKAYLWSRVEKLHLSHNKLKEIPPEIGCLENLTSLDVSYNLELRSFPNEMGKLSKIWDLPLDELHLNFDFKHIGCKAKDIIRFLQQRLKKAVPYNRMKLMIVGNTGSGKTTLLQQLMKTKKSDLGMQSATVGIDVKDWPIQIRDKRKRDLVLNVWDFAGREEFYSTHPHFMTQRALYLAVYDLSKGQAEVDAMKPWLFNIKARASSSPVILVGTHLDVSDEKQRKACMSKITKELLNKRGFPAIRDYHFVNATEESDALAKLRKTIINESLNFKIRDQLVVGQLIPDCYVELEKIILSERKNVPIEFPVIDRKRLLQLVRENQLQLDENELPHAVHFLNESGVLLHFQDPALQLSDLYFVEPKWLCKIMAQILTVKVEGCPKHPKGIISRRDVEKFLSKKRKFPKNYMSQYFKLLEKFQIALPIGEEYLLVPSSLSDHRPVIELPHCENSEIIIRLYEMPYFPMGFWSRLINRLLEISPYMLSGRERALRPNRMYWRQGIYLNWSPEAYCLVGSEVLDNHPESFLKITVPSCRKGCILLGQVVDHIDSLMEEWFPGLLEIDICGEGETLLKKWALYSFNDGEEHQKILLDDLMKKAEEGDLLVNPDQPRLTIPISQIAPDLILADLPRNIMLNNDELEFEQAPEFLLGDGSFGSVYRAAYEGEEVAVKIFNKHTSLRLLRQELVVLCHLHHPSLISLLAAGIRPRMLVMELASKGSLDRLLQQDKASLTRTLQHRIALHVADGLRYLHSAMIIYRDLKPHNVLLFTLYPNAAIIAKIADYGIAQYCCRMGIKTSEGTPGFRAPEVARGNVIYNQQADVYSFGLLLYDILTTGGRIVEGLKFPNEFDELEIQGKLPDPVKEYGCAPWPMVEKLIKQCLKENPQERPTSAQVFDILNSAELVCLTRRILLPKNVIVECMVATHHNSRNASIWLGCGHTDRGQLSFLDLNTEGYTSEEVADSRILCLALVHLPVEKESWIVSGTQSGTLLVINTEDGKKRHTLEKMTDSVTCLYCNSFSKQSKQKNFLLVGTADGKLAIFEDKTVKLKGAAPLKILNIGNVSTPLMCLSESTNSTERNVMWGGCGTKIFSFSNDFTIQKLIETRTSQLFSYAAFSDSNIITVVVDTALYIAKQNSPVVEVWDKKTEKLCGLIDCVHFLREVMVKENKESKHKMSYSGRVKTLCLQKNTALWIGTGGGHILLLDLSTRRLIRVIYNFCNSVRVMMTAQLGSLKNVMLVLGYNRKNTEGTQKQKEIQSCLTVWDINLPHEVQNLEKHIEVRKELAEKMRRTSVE
Chain of mutant G2019S LRRK2 (Q5S007 970-2527 G2019S limits assumed): as the sequence (Q5S007 970-2527 limits assumed) above, with G1050S counted along it

`N#Cc1ccc2ncc3nc(Cn4cc(C5CC5)nn4)n([C@@H]4CC[C@H](F)C4)c3c2c1` (single isomer, unassigned; ent-1) [Example 202, 2-[(4-cyclopropyl-1H-1,2,3-triazol-1-yl)methyl]-1-(cis-3-fluorocyclopentyl)-1H-imidazo[4,5-c]quinoline-8-carbonitrile, ENT-1]: the IC50 was found to be 0.0155 µM in assay [1] (setting [3]) and 0.0204 µM in assay [2] (setting [4]).

For `N#Cc1ccc2ncc3nc(Cc4cscn4)n([C@@H]4CC[C@H](F)C4)c3c2c1` (single isomer, unassigned; ent-1) [Example 203, 1-(cis-3-fluorocyclopentyl)-2-(1,3-thiazol-4-ylmethyl)-1H-imidazo[4,5-c]quinoline-8-carbonitrile, ENT-1], the half-inhibitory concentration (IC50) in assay [1] (setting [3]) is 0.0122 µM; in assay [2] (setting [4]) it was 0.0163 µM.

On to `N#CCc1nc2cnc3ccc(Cl)cc3c2n1[C@@H]1CC[C@H](F)C1` (single isomer, unassigned; ent-1) [Example 204, {8-chloro-1-(cis-3-fluorocyclopentyl)-1H-imidazo[4,5-c]quinolin-2-yl}acetonitrile, ENT-1], for which the results for the IC50 in assay [1] (setting [3]) and in assay [2] (setting [4]) were 0.0228 µM and 0.0351 µM, respectively.

Take `N#Cc1ccc2ncc3nc(Cc4cc(C(F)(F)F)on4)n([C@@H]4CC[C@H](F)C4)c3c2c1` (single isomer, unassigned; ent-1) [Example 211, 1-(cis-3-fluorocyclopentyl)-2-{[5-(trifluoromethyl)-1,2-oxazol-3-yl]methyl}-1H-imidazo[4,5-c]quinoline-8-carbonitrile, ENT-1]: the concentration for half-maximal inhibition (IC50) in assay [1] (setting [3]) is 0.0128 µM; in assay [2] (setting [4]) it was 0.0187 µM.

For `Cc1cnc(Cc2nc3cnc4ccc(C#N)cc4c3n2C2CCOC(C)(C)C2)cn1` (single isomer, unassigned; ent-1) [Example 215, 1-(2,2-dimethyltetrahydro-2H-pyran-4-yl)-2-[(5-methylpyrazin-2-yl)methyl]-1H-imidazo[4,5-c]quinoline-8-carbonitrile, ENT-1], the values for the IC50 in assay [1] (setting [3]) and in assay [2] (setting [4]) were 0.0134 µM and 0.0139 µM, respectively.

For the compound `Cc1cn(Cc2nc3cnc4ccc(C#N)cc4c3n2C2CCC(F)C2)nn1` (single isomer, unassigned; ent-1) [Example C73, 1-(cis-3-fluorocyclopentyl)-2-[(4-methyl-1H-1,2,3-triazol-1-yl)methyl]-1H-imidazo[4,5-c]quinoline-8-carbonitrile, ENT-1], the IC50 in assay [1] (setting [3]) is 0.0204 µM; in assay [2] (setting [4]), 0.0261 µM.

As to `Cc1cc(Cc2nc3cnc4ccc(C#N)cc4c3n2C2CCCC2(F)F)no1` (single isomer, unassigned; ent-2) [Example 144, 1-(2,2-difluorocyclopentyl)-2-[(5-methyl-1,2-oxazol-3-yl)methyl]-1H-imidazo[4,5-c]quinoline-8-carbonitrile, ENT-2], the IC50 in assay [1] (setting [3]) is 0.0193 µM; in assay [2] (setting [4]) it was 0.0293 µM.

`Cc1cc(Cc2nc3cnc4ccc(C#N)cc4c3n2[C@@H]2CCC[C@@H]2F)no1` (single isomer, unassigned; ent-2) [Example 147, 1-(cis-2-fluorocyclopentyl)-2-[(5-methyl-1,2-oxazol-3-yl)methyl]-1H-imidazo[4,5-c]quinoline-8-carbonitrile, ENT-2]: the results for the IC50 in assay [1] (setting [3]) and in assay [2] (setting [4]) were 0.0145 µM and 0.0226 µM, respectively.

Regarding `Cc1nn2cc(Cc3nc4cnc5ccc(C#N)cc5c4n3[C@@H]3CC[C@H](F)C3)nc2s1` (single isomer, unassigned; ent-2) [Example 169, 1-(cis-3-fluorocyclopentyl)-2-[(2-methylimidazo[2,1-b][1,3,4]thiadiazol-6-yl)methyl]-1H-imidazo[4,5-c]quinoline-8-carbonitrile, ENT-2], the figures for the IC50 in assay [1] (setting [3]) and in assay [2] (setting [4]) were 0.00359 µM and 0.00555 µM, respectively.

Turning to `CC1(C)CC(n2c(Cc3cc(C(F)(F)F)on3)nc3cnc4ccc(C#N)cc4c32)CCO1` (single isomer, unassigned; ent-2) [Example 177, 1-(2,2-dimethyltetrahydro-2H-pyran-4-yl)-2-{[5-(trifluoromethyl)-1,2-oxazol-3-yl]methyl}-1H-imidazo[4,5-c]quinoline-8-carbonitrile, ENT-2], the concentration for half-maximal inhibition (IC50) came out at 1.22 µM in assay [1] (setting [3]) and 0.914 µM in assay [2] (setting [4]).

As for `Cc1cn(Cc2nc3cnc4ccc(C#N)cc4c3n2C2CCCC2(F)F)nn1` (single isomer, unassigned; ent-2) [Example 197, 1-(2,2-difluorocyclopentyl)-2-[(4-methyl-1H-1,2,3-triazol-1-yl)methyl]-1H-imidazo[4,5-c]quinoline-8-carbonitrile, ENT-2], the IC50 is 0.0127 µM in assay [1] (setting [3]) and 0.0187 µM in assay [2] (setting [4]).

Take `COc1ccc(Cc2nc3cnc4ccc(C#N)cc4c3n2C2CCOC(C)(C)C2)nc1` (single isomer, unassigned; ent-2) [Example 207, 1-(2,2-dimethyltetrahydro-2H-pyran-4-yl)-2-[(5-methoxypyridin-2-yl)methyl]-1H-imidazo[4,5-c]quinoline-8-carbonitrile, ENT-2]: the IC50 was determined as 0.00753 µM in assay [1] (setting [3]) and 0.00684 µM in assay [2] (setting [4]).

As for `Cc1cnc(Cc2nc3cnc4ccc(C#N)cc4c3n2C2CCC(F)C2)cn1` (single isomer, unassigned; ent-2) [Example C89, 1-(cis-3-fluorocyclopentyl)-2-[(5-methylpyrazin-2-yl)methyl]-1H-imidazo[4,5-c]quinoline-8-carbonitrile, ENT-2], the IC50 amounted to 0.0188 µM in assay [1] (setting [3]) and 0.0205 µM in assay [2] (setting [4]).

As to `Cc1cc(Cc2nc3cnc4ccc(C#N)cc4c3n2C2CCCCC2(F)F)no1` (single isomer, unassigned; ent-2) [Example C94, 1-(2,2-difluorocyclohexyl)-2-[(5-methyl-1,2-oxazol-3-yl)methyl]-1H-imidazo[4,5-c]quinoline-8-carbonitrile, ENT-2], the IC50 in assay [1] (setting [3]) is 0.0214 µM; in assay [2] (setting [4]) it was 0.0305 µM.

For `Cc1cc(Cc2nc3cnc4ccc(C#N)cc4c3n2C2CCC(F)C2)on1` (single isomer, unassigned; ent-2) [enantiomer of Example 118, 1-(cis-3-fluorocyclopentyl]-2-[(3-methyl-1,2-oxazol-5-yl)methyl]-1H-imidazo[4,5-c]quinoline-8-carbonitrile, ENT-2], the half-maximal inhibitory concentration (IC50) in assay [1] (setting [5]) stood at 0.0224 µM; in assay [2] (setting [6]), 0.0261 µM.

In the case of `COCc1cn(Cc2nc3cnc4ccc(C#N)cc4c3n2C2CCC(F)C2)nn1` (single isomer, unassigned; ent-2) [enantiomer of Example 132, 1-(cis-3-fluorocyclopentyl)-2-{[4-(methoxymethyl)-1H-1,2,3-triazol-1-yl]methyl}-1H-imidazo[4,5-c]quinoline-8-carbonitrile, ENT-2], the values for the IC50 in assay [1] (setting [5]) and in assay [2] (setting [6]) were 0.0268 µM and 0.0345 µM, respectively.

For the compound `Cc1cc(Cc2nc3cnc4ccc(C#N)cc4c3n2[C@@H]2CCO[C@H](C)C2)on1` [Example 95, 2-[(3-Methyl-1,2-oxazol-5-yl)methyl]-1-[(2R,4R)-2-methyltetrahydro-2H-pyran-4-yl]-1H-imidazo[4,5-c]quinoline-8-carbonitrile], the IC50 in assay [1] (setting [3]) was determined as 0.00536 µM; in assay [2] (setting [4]) it was 0.006 µM.

Consider `COc1ccc(Cc2nc3cnc4ccc(C#N)cc4c3n2[C@@H]2CCO[C@H](C)C2)nc1` [Example 96, 2-[(5-Methoxypyridin-2-yl)methyl]-1-[(2R,4R)-2-methyltetrahydro-2H-pyran-4-yl]-1H-imidazo[4,5-c]quinoline-8-carbonitrile], for which the IC50 in assay [1] (setting [3]) was 0.00631 µM; in assay [2] (setting [4]), 0.00465 µM.

As to `C[C@@H]1C[C@H](n2c(Cc3cnccn3)nc3cnc4ccc(C#N)cc4c32)CCO1` [Example 98, 1-[(2R,4R)-2-Methyltetrahydro-2H-pyran-4-yl]-2-(pyrazin-2-ylmethyl)-1H-imidazo[4,5-c]quinoline-8-carbonitrile, formate salt], the IC50 in assay [1] (setting [3]) worked out at 0.00756 µM; in assay [2] (setting [4]), 0.00616 µM.

`C[C@@H]1C[C@H](n2c(Cn3cc(C(F)(F)F)nn3)nc3cnc4ccc(Cl)cc4c32)CCO1` [Example 99, 8-Chloro-1-[(2R,4R)-2-methyltetrahydro-2H-pyran-4-yl]-2-{[4-(trifluoromethyl)-1H-1,2,3-triazol-1-yl]methyl}-1H-imidazo[4,5-c]quinoline, formate salt]: the IC50 was 0.00584 µM in assay [1] (setting [3]) and 0.00542 µM in assay [2] (setting [4]).

On to `Cc1ccc(Cc2nc3cnc4ccc(Cl)cc4c3n2[C@@H]2CCO[C@H](C)C2)nc1` [Example 100, 8-Chloro-2-[(5-methylpyridin-2-yl)methyl]-1-[(2R,4R)-2-methyltetrahydro-2H-pyran-4-yl]-1H-imidazo[4,5-c]quinoline], for which the IC50 in assay [1] (setting [3]) is 0.00474 µM; in assay [2] (setting [4]), 0.00501 µM.
